Results published in patent publication US20230301300A1, “HERBICIDAL COMPOSITIONS” (SYNGENTA CROP PROTECTION AG, priority 2020, published 2023).

What was measured:
Assay type in all cases: in vivo
[1] = tested on: Amaranthus retoflexus (AMARE); experiment: B1 Post-Emergence Efficacy - Test 1; conditions: 1000 g/ha, after 13 days, five point scale
Outline: (§1)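 Pot-grown plants were sprayed 8 days after sowing (post-emergence) with compound at 1000 g/ha in acetone/water (50:50) containing 0.5% Tween 20. Glasshouse conditions were 24/16° C. day/night, 14 hours light, 65% humidity. Percentage damage was assessed after 13 days and scored on a 1–5 scale (5=80-100%; 1=0-19%).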

[2] = tested on: Echinochloa crus-galli (ECHCG); experiment: B1 Post-Emergence Efficacy - Test 1; conditions: 1000 g/ha, after 13 days, five point scale
Outline: as §1

[3] = tested on: Ipomoea hederacea (IPOHE); experiment: B1 Post-Emergence Efficacy - Test 1; conditions: 1000 g/ha, after 13 days, five point scale
Outline: as §1

Lolium perenne (LOLPE) = experiment: B1 Post-Emergence Efficacy - Test 1; conditions: 1000 g/ha, after 13 days, five point scale
Outline: as §1

Setaria faberi (SETFA) [4] = experiment: B1 Post-Emergence Efficacy - Test 1; conditions: 1000 g/ha, after 13 days, five point scale
Outline: as §1

Solanum nigrum (SOLNI) = experiment: B1 Post-Emergence Efficacy - Test 1; conditions: 1000 g/ha, after 13 days, five point scale
Outline: as §1

[5] = tested on: Chenopodium album (CHEAL); experiment: B2 Post-Emergence Efficacy - Test 2; conditions: 15 days after application, 0-100 scale
Description: (§2) Seeds of a variety of test species (see Table B1) were sown in standard soil in pots. After cultivation for 12 days (post-emergence) under controlled conditions in a glasshouse (at 24/18° C. or 20/16° C., at day/night; 16 hours light; 65% humidity), the plants were sprayed with an aqueous spray solution derived from the formulation of the technical active ingredient dissolved in IF50 (see Table B2 for composition) and adjuvant (Genapol X080) was added to the spray solution at a rate of 0.2% v/v.
(§3) After application, the test plants were grown in a glasshouse under controlled conditions (as above) and watered twice daily. Herbicidal activity was evaluated 15 days after application on a 0-100 scale. The results, where 0=no damage to test plant and 100=total kill of test plant are shown below in Tables 8 to 11.

[6] = tested on: Echinochloa crus galli (ECHCG); experiment: B2 Post-Emergence Efficacy - Test 2; conditions: 15 days after application, 0=no damage, 100=total kill
Description: as §2, §3

Eleisine indica (ELEIN) = experiment: B2 Post-Emergence Efficacy - Test 2; conditions: 15 days after application, 0=no damage, 100=total kill
Description: as §2, §3

[7] = tested on: Euphorbia hetrophylla (EPHHL); experiment: B2 Post-Emergence Efficacy - Test 2; conditions: 15 days after application, 0-100 scale
Description: as §2, §3

Galium aparine (GALAP) = experiment: B2 Post-Emergence Efficacy - Test 2; conditions: 15 days after application, 0-100 scale
Description: as §2, §3

Orysa sativa (ORYSA) = experiment: B2 Post-Emergence Efficacy - Test 2; conditions: 15 days after application; for Herbicidal activity ORYSA: 0-100 scale; for Herbicidal activity on a 0-100 scale, ORYSA: 0=no damage, 100=total kill
Description: as §2, §3

[8] = tested on: Panicum miliaceum (PANMI); experiment: B2 Post-Emergence Efficacy - Test 2; conditions: 15 days after application, 0=no damage, 100=total kill
Description: as §2, §3

Setaria faberi (SETFA) [9] = experiment: B2 Post-Emergence Efficacy - Test 2; conditions: 15 days after application, 0=no damage, 100=total kill
Description: as §2, §3

Stellaria media (STEME) = experiment: B2 Post-Emergence Efficacy - Test 2; conditions: 15 days after application, 0-100 scale
Description: as §2, §3

Veronica persica (VERPE) = experiment: B2 Post-Emergence Efficacy - Test 2; conditions: 15 days after application, 0-100 scale
Description: as §2, §3

Zea mays (ZEAMX) = experiment: B2 Post-Emergence Efficacy - Test 2; conditions: 15 days after application; for Herbicidal activity ZEAMX: 0-100 scale; for Herbicidal activity on a 0-100 scale, ZEAMX: 0=no damage, 100=total kill
Description: as §2, §3

## Cc1nn(C)c(=O)c(-c2c(F)ccc(Cl)c2CCc2ccc(C#N)cc2)c1O [Compound 1.024, 4-[3-chloro-6-fluoro-2-[2-[4-(cyano)phenyl]ethyl]phenyl]-5-hydroxy-2,6-dimethyl-pyridazin-3-one]
[1]
  percentage damage caused to the plant, AMARE: 5 (5=80-100%)
[2]
  percentage damage caused to the plant, ECHCG: 5 (5=80-100%)
[3]
  percentage damage caused to the plant, IPOHE: 5 (5=80-100%)
Lolium perenne (LOLPE)
  percentage damage caused to the plant, LOLPE: 5 (5=80-100%)
Setaria faberi (SETFA) [4]
  percentage damage caused to the plant, SETFA: 5 (5=80-100%)
Solanum nigrum (SOLNI)
  percentage damage caused to the plant, SOLNI: 5 (5=80-100%)
[5]; 15 g/Ha
  Herbicidal activity CHEAL: 60
[5]; 30 g/Ha
  Herbicidal activity CHEAL: 90
[5]; 60 g/Ha
  Herbicidal activity CHEAL: 90
[5]; 125 g/Ha
  Herbicidal activity CHEAL: 90
[5]; 250 g/Ha
  Herbicidal activity CHEAL: 90
[5]; 500 g/Ha
  Herbicidal activity CHEAL: 100
[6]; 15 g/Ha
  Herbicidal activity on a 0-100 scale, ECHCG: 70
[6]; 30 g/Ha
  Herbicidal activity on a 0-100 scale, ECHCG: 80
[6]; 60 g/Ha
  Herbicidal activity on a 0-100 scale, ECHCG: 80
[6]; 125 g/Ha
  Herbicidal activity on a 0-100 scale, ECHCG: 90
[6]; 250 g/Ha
  Herbicidal activity on a 0-100 scale, ECHCG: 90
[6]; 500 g/Ha
  Herbicidal activity on a 0-100 scale, ECHCG: 100
Eleisine indica (ELEIN); 15 g/Ha
  Herbicidal activity on a 0-100 scale, ELEIN: 0
Eleisine indica (ELEIN); 30 g/Ha
  Herbicidal activity on a 0-100 scale, ELEIN: 40
Eleisine indica (ELEIN); 60 g/Ha
  Herbicidal activity on a 0-100 scale, ELEIN: 40
Eleisine indica (ELEIN); 125 g/Ha
  Herbicidal activity on a 0-100 scale, ELEIN: 60
Eleisine indica (ELEIN); 250 g/Ha
  Herbicidal activity on a 0-100 scale, ELEIN: 80
Eleisine indica (ELEIN); 500 g/Ha
  Herbicidal activity on a 0-100 scale, ELEIN: 80
[7]; 15 g/Ha
  Herbicidal activity EPHHL: 70
[7]; 30 g/Ha
  Herbicidal activity EPHHL: 90
[7]; 60 g/Ha
  Herbicidal activity EPHHL: 90
[7]; 125 g/Ha
  Herbicidal activity EPHHL: 90
[7]; 250 g/Ha
  Herbicidal activity EPHHL: 100
[7]; 500 g/Ha
  Herbicidal activity EPHHL: 100
Galium aparine (GALAP); 30 g/Ha
  Herbicidal activity GALAP: 20
Galium aparine (GALAP); 60 g/Ha
  Herbicidal activity GALAP: 20
Galium aparine (GALAP); 125 g/Ha
  Herbicidal activity GALAP: 60
Galium aparine (GALAP); 250 g/Ha
  Herbicidal activity GALAP: 90
Galium aparine (GALAP); 500 g/Ha
  Herbicidal activity GALAP: 90
Orysa sativa (ORYSA); 15 g/Ha
  Herbicidal activity ORYSA: 0
  Herbicidal activity on a 0-100 scale, ORYSA: 0
Orysa sativa (ORYSA); 30 g/Ha
  Herbicidal activity ORYSA: 0
  Herbicidal activity on a 0-100 scale, ORYSA: 0
Orysa sativa (ORYSA); 60 g/Ha
  Herbicidal activity ORYSA: 0
  Herbicidal activity on a 0-100 scale, ORYSA: 0
Orysa sativa (ORYSA); 125 g/Ha
  Herbicidal activity ORYSA: 0
  Herbicidal activity on a 0-100 scale, ORYSA: 0
Orysa sativa (ORYSA); 250 g/Ha
  Herbicidal activity ORYSA: 20
  Herbicidal activity on a 0-100 scale, ORYSA: 20
Orysa sativa (ORYSA); 500 g/Ha
  Herbicidal activity ORYSA: 40
  Herbicidal activity on a 0-100 scale, ORYSA: 40
[8]; 15 g/Ha
  Herbicidal activity on a 0-100 scale, PANMI: 0
[8]; 30 g/Ha
  Herbicidal activity on a 0-100 scale, PANMI: 70
[8]; 60 g/Ha
  Herbicidal activity on a 0-100 scale, PANMI: 80
[8]; 125 g/Ha
  Herbicidal activity on a 0-100 scale, PANMI: 90
[8]; 250 g/Ha
  Herbicidal activity on a 0-100 scale, PANMI: 90
[8]; 500 g/Ha
  Herbicidal activity on a 0-100 scale, PANMI: 100
Setaria faberi (SETFA) [9]; 15 g/Ha
  Herbicidal activity on a 0-100 scale, SETFA: 20
Setaria faberi (SETFA) [9]; 30 g/Ha
  Herbicidal activity on a 0-100 scale, SETFA: 70
Setaria faberi (SETFA) [9]; 60 g/Ha
  Herbicidal activity on a 0-100 scale, SETFA: 80
Setaria faberi (SETFA) [9]; 125 g/Ha
  Herbicidal activity on a 0-100 scale, SETFA: 90
Setaria faberi (SETFA) [9]; 250 g/Ha
  Herbicidal activity on a 0-100 scale, SETFA: 90
Setaria faberi (SETFA) [9]; 500 g/Ha
  Herbicidal activity on a 0-100 scale, SETFA: 100
Stellaria media (STEME); 15 g/Ha
  Herbicidal activity STEME: 90
Stellaria media (STEME); 30 g/Ha
  Herbicidal activity STEME: 90
Stellaria media (STEME); 60 g/Ha
  Herbicidal activity STEME: 90
Stellaria media (STEME); 125 g/Ha
  Herbicidal activity STEME: 90
Stellaria media (STEME); 250 g/Ha
  Herbicidal activity STEME: 90
Stellaria media (STEME); 500 g/Ha
  Herbicidal activity STEME: 100
Veronica persica (VERPE); 15 g/Ha
  Herbicidal activity VERPE: 80
Veronica persica (VERPE); 30 g/Ha
  Herbicidal activity VERPE: 80
Veronica persica (VERPE); 60 g/Ha
  Herbicidal activity VERPE: 90
Veronica persica (VERPE); 125 g/Ha
  Herbicidal activity VERPE: 80
Veronica persica (VERPE); 250 g/Ha
  Herbicidal activity VERPE: 100
Veronica persica (VERPE); 500 g/Ha
  Herbicidal activity VERPE: 100
Zea mays (ZEAMX); 15 g/Ha
  Herbicidal activity ZEAMX: 0
  Herbicidal activity on a 0-100 scale, ZEAMX: 0
Zea mays (ZEAMX); 30 g/Ha
  Herbicidal activity ZEAMX: 10
  Herbicidal activity on a 0-100 scale, ZEAMX: 10
Zea mays (ZEAMX); 60 g/Ha
  Herbicidal activity ZEAMX: 20
  Herbicidal activity on a 0-100 scale, ZEAMX: 20
Zea mays (ZEAMX); 125 g/Ha
  Herbicidal activity ZEAMX: 40
  Herbicidal activity on a 0-100 scale, ZEAMX: 40
Zea mays (ZEAMX); 250 g/Ha
  Herbicidal activity ZEAMX: 70
  Herbicidal activity on a 0-100 scale, ZEAMX: 70
Zea mays (ZEAMX); 500 g/Ha
  Herbicidal activity ZEAMX: 100
  Herbicidal activity on a 0-100 scale, ZEAMX: 100
